IC50, Shift and inhibition data for 23 compounds are collected here from US8569292B2, “Cyclic inhibitors of 11β-hydroxysteroid dehydrogenase 1” (Vitae Pharmaceuticals, Inc., priority 2008, dated 2013).

Assay [1] addresses T1, 11β-HSD1 (Homo sapiens, UniProt P28845). In words: Biological Test Example 4: microsomal 11β-HSD1 in the presence of 50% human plasma. To be noted: for Shift: IC50 in Test Example 4 divided by IC50 in Test Example 1.
Assay [2] deals with T1, 11β-HSD1. Put plainly: biochemical. To be noted: for inhibition at 0.1 µM: read-out: Average % inhibition at 100 nM.
Setting [3] is: Biological Test Example 1 IC50 (nM).
[4] abbreviates: IC50 Range, Biological Test Example 1.

T1 sequence (P28845 whole entry): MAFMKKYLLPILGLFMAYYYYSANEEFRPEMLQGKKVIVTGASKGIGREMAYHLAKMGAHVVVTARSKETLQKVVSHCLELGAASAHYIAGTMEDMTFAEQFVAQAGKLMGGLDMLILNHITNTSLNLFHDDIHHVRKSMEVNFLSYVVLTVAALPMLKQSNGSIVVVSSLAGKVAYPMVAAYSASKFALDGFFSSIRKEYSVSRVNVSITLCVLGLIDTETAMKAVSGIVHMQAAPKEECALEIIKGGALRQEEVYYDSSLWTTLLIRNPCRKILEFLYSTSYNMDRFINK

In the case of `C[C@@H](c1ccc(-c2ccccn2)cc1)N1CC[C@](CCO)(c2ccc(F)cc2)OC1=O` [EXAMPLE 57, (S)-6-(4-fluorophenyl)-6-(2-hydroxyethyl)-3-((S)-1-(4-(pyridin-2-yl)phenyl)ethyl)-1,3-oxazinan-2-one], the concentration for half-maximal inhibition (IC50) on 11β-HSD1 [1] was 19.2 nM; against 11β-HSD1 [2] (setting [3]) it was 1 nM; against 11β-HSD1 [2] (setting [4]), less than 100 nM. For the same compound, the Shift at 11β-HSD1 [1] turned out to be 18.8. The inhibition at 0.1 µM on 11β-HSD1 [2] came out at 99.4%.

Regarding `C[C@@H](c1ccc(-c2cccc(N(C)C)n2)cc1)N1CC[C@](CC(C)(C)O)(c2ccccc2)OC1=O` [EXAMPLE 30, (S)-3-((S)-1-(4-(6-(dimethylamino)pyridin-2-yl)phenyl)ethyl)-6-(2-hydroxy-2-methylpropyl)-6-phenyl-1,3-oxazinan-2-one], the half-inhibitory concentration (IC50) at 11β-HSD1 [1] was 21.8 nM; at 11β-HSD1 [2] (setting [3]), 0.9 nM; at 11β-HSD1 [2] (setting [4]), less than 100 nM. Moreover, the Shift on 11β-HSD1 [1] was determined as 24.0. In addition, the inhibition at 0.1 µM at 11β-HSD1 [2] was determined as 98.1%.

For `C[C@@H](c1ccc(-c2ncc(C(C)(C)O)cn2)cc1)N1CC[C@](CC(C)(C)O)(c2ccccc2)OC1=O` [EXAMPLE 29, (S)-6-(2-hydroxy-2-methylpropyl)-3-((S)-1-(4-(5-(2-hydroxypropan-2-yl)pyrimidin-2-yl)phenyl)ethyl)-6-phenyl-1,3-oxazinan-2-one], the IC50 at 11β-HSD1 [2] (setting [3]) is 12.2 nM; at 11β-HSD1 [2] (setting [4]), less than 100 nM. For the same compound, the inhibition at 0.1 µM on 11β-HSD1 [2] was 83.8%.

`COc1ccc(-c2ccc([C@H](C)N3CC[C@](CCC(N)=O)(c4ccc(F)cc4)OC3=O)cc2)cn1` [EXAMPLE 66, 3-((R)-6-(4-fluorophenyl)-3-((S)-1-(4-(6-methoxypyridin-3-yl)phenyl)ethyl)-2-oxo-1,3-oxazinan-6-yl)propanamide]: the results for the half-maximal inhibitory concentration (IC50) on 11β-HSD1 [1], against 11β-HSD1 [2] (setting [3]) and against 11β-HSD1 [2] (setting [4]) were 9.7 nM, 1.3 nM and less than 100 nM, respectively. Further, the inhibition at 0.1 µM at 11β-HSD1 [2] turned out to be 95.6%.

As to `C[C@@H](c1ccc(-c2ccc[n+]([O-])c2)cc1)N1CC[C@](CCC(N)=O)(c2ccc(F)cc2)OC1=O` [EXAMPLE 68, 3-(4-((S)-1-((R)-6-(3-amino-3-oxopropyl)-6-(4-fluorophenyl)-2-oxo-1,3-oxazinan-3-yl)ethyl)phenyl)pyridine 1-oxide], the IC50 at 11β-HSD1 [2] (setting [3]) is 85.1 nM; against 11β-HSD1 [2] (setting [4]) it was less than 100 nM. Also, on 11β-HSD1 [2], the inhibition at 0.1 µM came out at 50%.

Consider `CNC(=O)c1cncc(-c2ccc([C@H](C)N3CC[C@](CCCO)(c4ccc(F)cc4)OC3=O)cc2)c1` [EXAMPLE 73, 5-(4-((S)-1-((R)-6-(4-fluorophenyl)-6-(3-hydroxypropyl)-2-oxo-1,3-oxazinan-3-yl)ethyl)phenyl)-N-methylnicotinamide], for which the IC50 on 11β-HSD1 [2] (setting [3]) is 46.9 nM; on 11β-HSD1 [2] (setting [4]), less than 100 nM. The inhibition at 0.1 µM on 11β-HSD1 [2] is 65.3%.

On to `C[C@@H](c1ccc(-c2ccccn2)cc1)N1CC[C@](CCC(N)=O)(c2ccc(F)cc2)OC1=O` [EXAMPLE 60, 3-((R)-6-(4-fluorophenyl)-2-oxo-3-((S)-1-(4-(pyridin-2-yl)phenyl)ethyl)-1,3-oxazinan-6-yl)propanamide], for which the 50% inhibitory concentration (IC50) at 11β-HSD1 [1] was 20.8 nM; against 11β-HSD1 [2] (setting [3]), 1.6 nM; against 11β-HSD1 [2] (setting [4]), less than 100 nM. Also, at 11β-HSD1 [1], the Shift was 13.1. Also, the inhibition at 0.1 µM at 11β-HSD1 [2] came out at 91.9%.

Take `Cc1ncc(-c2ccc([C@H](C)N3CC[C@](CCc4nnc(C)o4)(c4ccccc4)OC3=O)cc2)cn1` [EXAMPLE 18, (R)-6-(2-(5-methyl-1,3,4-oxadiazol-2-yl)ethyl)-3-((S)-1-(4-(2-methylpyrimidin-5-yl)phenyl)ethyl)-6-phenyl-1,3-oxazinan-2-one]: the IC50 against 11β-HSD1 [2] (setting [3]) and on 11β-HSD1 [2] (setting [4]) was greater than 100 nM throughout. Also, the inhibition at 0.1 µM on 11β-HSD1 [2] is 13.7%.

In the case of `Cc1cc(-c2ccc([C@H](C)N3CC[C@](CCCN(C)S(C)(=O)=O)(c4ccccc4)OC3=O)cc2)ccn1` [EXAMPLE 119, N-methyl-N-(3-((R)-3-((S)-1-(4-(2-methylpyridin-4-yl)phenyl)ethyl)-2-oxo-6-phenyl-1,3-oxazinan-6-yl)propyl)methanesulfonamide], the values for the IC50 at 11β-HSD1 [1], at 11β-HSD1 [2] (setting [3]) and on 11β-HSD1 [2] (setting [4]) were 29.7 nM, 2 nM and less than 100 nM, respectively. The Shift at 11β-HSD1 [1] came out at 15.1. The inhibition at 0.1 µM at 11β-HSD1 [2] is 90.8%.

Consider `C[C@@H](c1ccc(-c2cncc(C#N)n2)cc1)N1CC[C@](CC(C)(C)O)(c2ccc(F)cc2)OC1=O` [EXAMPLE 157, 6-(4-((S)-1-((S)-6-(4-fluorophenyl)-6-(2-hydroxy-2-methylpropyl)-2-oxo-1,3-oxazinan-3-yl)ethyl)phenyl)pyrazine-2-carbonitrile], for which the half-inhibitory concentration (IC50) on 11β-HSD1 [1] was 27.4 nM; against 11β-HSD1 [2] (setting [3]) it was 2.9 nM; against 11β-HSD1 [2] (setting [4]), less than 100 nM. Further, on 11β-HSD1 [1], the Shift came to 9.6. For the same compound, the inhibition at 0.1 µM on 11β-HSD1 [2] turned out to be 96.3%.

With `C=CC[C@]1(c2ccccc2)CCN([C@@H](C)c2ccc(-c3cncc(F)c3)cc2)C(=O)O1` [EXAMPLE 46, (R)-6-allyl-3-((S)-1-(4-(5-fluoropyridin-3-yl)phenyl)ethyl)-6-phenyl-1,3-oxazinan-2-one], the figures for the half-inhibitory concentration (IC50) at 11β-HSD1 [2] (setting [3]) and against 11β-HSD1 [2] (setting [4]) were 0.8 nM and less than 100 nM, respectively. For the same compound, the inhibition at 0.1 µM on 11β-HSD1 [2] came out at 93.4%.

On to `COc1cc(-c2ccc([C@H](C)N3CC[C@](CC(C)(C)O)(c4ccccc4)OC3=O)cc2)ccn1` [EXAMPLE 210, (S)-6-(2-hydroxy-2-methylpropyl)-3-((S)-1-(4-(2-methoxypyridin-4-yl)phenyl)ethyl)-6-phenyl-1,3-oxazinan-2-one], for which the IC50 against 11β-HSD1 [2] (setting [3]) is 0.6 nM; against 11β-HSD1 [2] (setting [4]) it was less than 100 nM.

For the compound `C[C@@H](c1ccc(-c2cncc(F)c2)cc1)N1CC[C@](CCC(=O)O)(c2ccc(F)cc2)OC1=O` [EXAMPLE 70, 3-((R)-6-(4-fluorophenyl)-3-((S)-1-(4-(5-fluoropyridin-3-yl)phenyl)ethyl)-2-oxo-1,3-oxazinan-6-yl)propanoic acid], the IC50 on 11β-HSD1 [2] (setting [3]) was 99.6 nM; against 11β-HSD1 [2] (setting [4]), less than 100 nM. Also, at 11β-HSD1 [2], the inhibition at 0.1 µM came out at 49.7%.

In the case of `C[C@@H](c1ccc(-c2ccc(OCC(C)(C)O)nc2)cc1)N1CC[C@](CC(C)(C)O)(c2ccccc2)OC1=O` [EXAMPLE 198, (S)-3-((S)-1-(4-(6-(2-hydroxy-2-methylpropoxy)pyridin-3-yl)phenyl)ethyl)-6-(2-hydroxy-2-methylpropyl)-6-phenyl-1,3-oxazinan-2-one], the IC50 against 11β-HSD1 [2] (setting [3]) was 1 nM; against 11β-HSD1 [2] (setting [4]), less than 100 nM. Moreover, at 11β-HSD1 [2], the inhibition at 0.1 µM was 92.4%.

As for `C=CC[C@]1(c2ccc(F)cc2)CCN([C@@H](C)c2ccc(-c3nnc(C)s3)cc2)C(=O)O1` [EXAMPLE 39, (R)-6-allyl-6-(4-fluorophenyl)-3-((S)-1-(4-(5-methyl-1,3,4-thiadiazol-2-yl)phenyl)ethyl)-1,3-oxazinan-2-one], the figures for the IC50 at 11β-HSD1 [2] (setting [3]) and against 11β-HSD1 [2] (setting [4]) were 5.2 nM and less than 100 nM, respectively. Moreover, the inhibition at 0.1 µM on 11β-HSD1 [2] was 73.6%.

Turning to `C[C@@H](c1ccc(-c2ccc[n+]([O-])c2)cc1)N1CC[C@](CCC(N)=O)(c2ccccc2)OC1=O` [EXAMPLE 50, 3-(4-((S)-1-((R)-6-(3-amino-3-oxopropyl)-2-oxo-6-phenyl-1,3-oxazinan-3-yl)ethyl)phenyl)pyridine 1-oxide], at 11β-HSD1 [2], the IC50 is less than 100 nM and the inhibition at 0.1 µM is 81.2%. Besides, the half-maximal inhibitory concentration (IC50) against 11β-HSD1 [2] (setting [3]) was determined as 29.1 nM.

As to `Cc1cc(-c2ccc([C@H](C)N3CC[C@](CCC(C)(C)O)(c4ccc(F)cc4)OC3=O)cc2)ccn1` [EXAMPLE 79, (R)-6-(4-fluorophenyl)-6-(3-hydroxy-3-methylbutyl)-3-((S)-1-(4-(2-methylpyridin-4-yl)phenyl)ethyl)-1,3-oxazinan-2-one], the IC50 on 11β-HSD1 [2] (setting [3]) was 28.3 nM; on 11β-HSD1 [2] (setting [4]) it was less than 100 nM. At 11β-HSD1 [2], the inhibition at 0.1 µM was 76.9%.

On to `C[C@@H](c1ccc(-c2cncc(C(=O)N(C)C)c2)cc1)N1CC[C@](CCCO)(c2ccc(F)cc2)OC1=O` [EXAMPLE 72, 5-(4-((S)-1-((R)-6-(4-fluorophenyl)-6-(3-hydroxypropyl)-2-oxo-1,3-oxazinan-3-yl)ethyl)phenyl)-N,N-dimethylnicotinamide], for which the IC50 on 11β-HSD1 [2] (setting [3]) is 43.5 nM; against 11β-HSD1 [2] (setting [4]) it was less than 100 nM. Moreover, at 11β-HSD1 [2], the inhibition at 0.1 µM came out at 64.8%.

Turning to `Cc1cc(-c2ccc([C@H](C)N3CC[C@](CCCO)(c4ccc(F)cc4)OC3=O)cc2)cc(C)n1` [EXAMPLE 81, (R)-3-((S)-1-(4-(2,6-dimethylpyridin-4-yl)phenyl)ethyl)-6-(4-fluorophenyl)-6-(3-hydroxypropyl)-1,3-oxazinan-2-one], the 50% inhibitory concentration (IC50) was 0.6 nM against 11β-HSD1 [2] (setting [3]) and less than 100 nM against 11β-HSD1 [2] (setting [4]). Also, the inhibition at 0.1 µM on 11β-HSD1 [2] was found to be 99.3%.

In the case of `CC1(c2ccccc2)CCN(c2cccc(-c3ccncc3)c2)C(=O)O1` (stereo not shown) [EXAMPLE 33, 6-methyl-6-phenyl-3-(3-(pyridin-4-yl)phenyl)-1,3-oxazinan-2-one], the concentration for half-maximal inhibition (IC50) against 11β-HSD1 [2] (setting [3]) is 305 nM; on 11β-HSD1 [2] (setting [4]), 100 to 1000 nM. Also, on 11β-HSD1 [2] (read-out: average % inhibition at 111 nM), the inhibition at 0.111 µM was 37.1%.

On to `Cc1cc(-c2ccc([C@H](C)N3CC[C@](CCCN4CCCC4=O)(c4ccccc4)OC3=O)cc2)ccn1` [EXAMPLE 104, (R)-3-((S)-1-(4-(2-methylpyridin-4-yl)phenyl)ethyl)-6-(3-(2-oxopyrrolidin-1-yl)propyl)-6-phenyl-1,3-oxazinan-2-one], for which the results for the 50% inhibitory concentration (IC50) on 11β-HSD1 [2] (setting [3]) and at 11β-HSD1 [2] (setting [4]) were 9.2 nM and less than 100 nM, respectively. For the same compound, the inhibition at 0.1 µM on 11β-HSD1 [2] is 88%.

For `CC(C)[C@@]1(CC(C)(C)O)CCN([C@@H](C)c2ccc(-c3cnc(C(=O)NC4CC4)nc3)cc2)C(=O)O1` [EXAMPLE 199, N-cyclopropyl-5-(4-((S)-1-((S)-6-(2-hydroxy-2-methylpropyl)-6-isopropyl-2-oxo-1,3-oxazinan-3-yl)ethyl)phenyl)pyrimidine-2-carboxamide], the 50% inhibitory concentration (IC50) was 63.5 nM at 11β-HSD1 [2] (setting [3]) and less than 100 nM against 11β-HSD1 [2] (setting [4]). The inhibition at 0.1 µM at 11β-HSD1 [2] stood at 62.9%.

Regarding `C[C@@H](c1ccc(-c2cncc(C(N)=O)c2)cc1)N1CC[C@](CCCO)(c2ccc(F)cc2)OC1=O` [EXAMPLE 71, 5-(4-((S)-1-((R)-6-(4-fluorophenyl)-6-(3-hydroxypropyl)-2-oxo-1,3-oxazinan-3-yl)ethyl)phenyl)nicotinamide], the 50% inhibitory concentration (IC50) was 44.1 nM at 11β-HSD1 [2] (setting [3]) and less than 100 nM on 11β-HSD1 [2] (setting [4]). Also, the inhibition at 0.1 µM at 11β-HSD1 [2] worked out at 68.7%.

As usually defined, the IC50 is the concentration that gives 50% inhibition. A word on the inhibition: it is the percentage by which the read-out fell short of the control.
